Each structure is given as a SMILES string.

In the RepoRT retention time repository (doi:10.1021/acs.analchem.2c02893) one finds LC retention time data, which are given here for 75 compounds.

The data set is described as follows: RP, Thermo Scientific Acclaim RSLC 120 C18, 100 × 2.1 mm, 2.2 µm, 30 °C, 0.2 mL/min, estimated dead time 1.1 min; A: 90% water + 10% methanol + 0.01% formic acid + 5 mM ammonium formate, pH 3.61; B: methanol + 0.01% formic acid + 5 mM ammonium formate, pH 3.61; gradient (min/%B) 0/1 1/1 2/39 13/99.9 15/99.9 15.1/1 20.1/1. The conditions noted are these: stereoisomer not certain.
Regarding `Cc1ccc(N=Nc2c(O)ccc3ccccc23)c(C)c1` [Sudan II], the LC retention time was 14.9 min. The figure for `Oc1ccc2ccccc2c1N=Nc1ccccc1` [Sudan I] is 13.6 min; for `CS(=O)(=O)c1ccc(C(=O)C2C(=O)CCCC2=O)c(Cl)c1` [Sulcotrione] it is 5 min. Then `Nc1ccc(S(=O)(=O)NC(=O)c2ccccc2)cc1` [Sulfabenzamide], with 4.72 min; and `Nc1ccc(S(=O)(=O)Nc2ccc(Cl)nn2)cc1` [Sulfachloropyridazine], with 4.56 min; and `Cc1nc(C)c(Cl)c(NS(=O)(=O)c2ccc(N)cc2)n1` [Sulfaclomide], with 3.96 min. On to `Nc1ccc(S(=O)(=O)Nc2cncc(Cl)n2)cc1` [Sulfaclozine], for which the LC retention time is 5.45 min. Then `CC(=O)Nc1ccc(S(=O)(=O)Nc2ncccn2)cc1` [Sulfadiazine-N4-Acetyl], with 4.11 min; and `Nc1ccc(S(=O)(=O)Nc2ncccn2)cc1` [Sulfadiazine], with 3.48 min; and `COc1cc(NS(=O)(=O)c2ccc(N)cc2)nc(OC)n1` [Sulfadimethoxine], with 5.6 min.

Take `Cc1cc(C)nc(NS(=O)(=O)c2ccc(N)cc2)n1` [Sulfadimidine (Sulfamethazine)]: the LC retention time is 4.31 min.

Consider `COc1ncnc(NS(=O)(=O)c2ccc(N)cc2)c1OC` [Sulfadoxine], for which the LC retention time was 4.75 min.

Turning to `NC(N)=NS(=O)(=O)c1ccc(N)cc1` [Sulfaguanidine], the LC retention time is 1.93 min.

With `COc1nccnc1NS(=O)(=O)c1ccc(N)cc1` [Sulfalene], the LC retention time was 4.44 min. Then `Cc1ccnc(NS(=O)(=O)c2ccc(N)cc2)n1` [Sulfamerazine], with 3.95 min. Then `COc1cnc(NS(=O)(=O)c2ccc(N)cc2)nc1` [Sulfameter (sulfumetin)], with 4.18 min; and `Cc1nnc(NS(=O)(=O)c2ccc(N)cc2)s1` [Sulfamethizole], with 4.21 min. The figure for `Cc1cc(NS(=O)(=O)c2ccc(N)cc2)on1` [Sulfamethoxazole (Impurity F)] is 4.39 min.

For `Cc1cc(NS(=O)(=O)c2ccc(NO)cc2)no1` [Sulfamethoxazole hydroxylamine], the LC retention time is 4.54 min. The figure for `CC(=O)Nc1ccc(S(=O)(=O)Nc2cc(C)on2)cc1` [Sulfamethoxazole-N4-Acetyl  (Impurity A)] is 5.28 min; for `Cc1cc(NS(=O)(=O)c2ccc(N)cc2)no1` [Sulfamethoxazole] it is 4.6 min. Then `COc1ccc(NS(=O)(=O)c2ccc(N)cc2)nn1` [Sulfamethoxypyridazine], with 4.38 min. The figure for `COc1cc(NS(=O)(=O)c2ccc(N)cc2)ncn1` [Sulfamonomethoxine] is 4.75 min; for `Cc1nc(NS(=O)(=O)c2ccc(N)cc2)oc1C` [Sulfamoxole] it is 4.11 min; for `Nc1ccc(S(=O)(=O)Nc2ccccn2)cc1` [Sulfapyridine] it is 3.8 min.

Consider `Nc1ccc(S(=O)(=O)Nc2cnc3ccccc3n2)cc1` [Sulfaquinoxaline], for which the LC retention time is 5.81 min. Then `O=C(O)c1cc(N=Nc2ccc(S(=O)(=O)Nc3ccccn3)cc2)ccc1O` [Sulfasalazine], with 6.61 min; and `CC(=O)Nc1ccc(S(=O)(=O)Nc2nccs2)cc1` [Sulfathiazole-N4-Acetyl], with 4.24 min. On to `O=C(O)c1ccccc1C(=O)Nc1ccc(S(=O)(=O)Nc2nccs2)cc1` [Sulfathiazole-Phthalyl], for which the LC retention time was 4.66 min.

Consider `Nc1ccc(S(=O)(=O)Nc2nccs2)cc1` [Sulfathiazole], for which the LC retention time was 3.63 min. For `O=C1C(CCS(=O)c2ccccc2)C(=O)N(c2ccccc2)N1c1ccccc1` (stereo not given) [Sulfinpyrazone], the LC retention time was 7.94 min.

For `Cc1noc(NS(=O)(=O)c2ccc(N)cc2)c1C` [Sulfisoxazole], the LC retention time was 4.71 min. Then `COC(=O)c1ccccc1S(=O)(=O)NC(=O)Nc1nc(C)cc(C)n1` [Sulfometuron-methyl], with 6.92 min; and `CCOP(=S)(OCC)OP(=S)(OCC)OCC` [Sulfotepp], with 10.8 min.

`CC1=C(CC(=O)O)c2cc(F)ccc2C1=Cc1ccc(S(C)=O)cc1` (stereo not given) [Sulindac]: the LC retention time was 8.24 min. With `CCN1CCCC1CNC(=O)c1cc(S(N)(=O)=O)ccc1O` (stereo not given) [Sulpiride-O-Desmethyl], the LC retention time is 3.18 min. Then `CCN1CCCC1CNC(=O)c1cc(S(N)(=O)=O)ccc1OC` (stereo not given) [Sulpiride], with 2.94 min. Take `CCCSP(=S)(OCC)Oc1ccc(SC)cc1` (stereo not given) [Sulprofos (Bolstar)]: the LC retention time was 12.8 min.

As for `NS(=O)(=O)c1ccc(N2CCCCS2(=O)=O)cc1` [Sulthiame], the LC retention time was 4.11 min. Then `CNS(=O)(=O)Cc1ccc2[nH]cc(CCN(C)C)c2c1` [Sumatriptan], with 3.43 min.

On to `CCCCC1(COC(=O)CCC(=O)O)C(=O)N(c2ccccc2)N(c2ccccc2)C1=O` [Suxibuzone], for which the LC retention time was 9.61 min.

In the case of `CNCC(O)c1ccc(O)cc1` (stereo not given) [Synephrine], the LC retention time is 1.6 min. As to `CNC(C)C(O)c1ccc(O)cc1` (stereo not given) [Synphrine-Methyl], the LC retention time was 2.05 min. Then `CCOP(=O)(OCC)OP(=O)(OCC)OCC` [TEPP], with 6.49 min; and `CCCCCc1cc(O)c2c(c1)OC(C)(C)C1CCC(CO)=CC21` (stereo not given) [THC-OH. 11-OH-THC], with 12.5 min. Then `O=C(Nc1cccc2cccnc12)c1nn(CCCCCF)c2ccccc12` [THJ-5F], with 12.5 min; and `CCCCCn1nc(C(=O)c2cccc3ccccc23)c2ccccc21` [THJ-018], with 13.1 min. The figure for `O=C(c1cccc2ccccc12)c1nn(CCCCCF)c2ccccc12` [THJ-2201] is 11.9 min. Consider `O=S(O)(O)=S` [THJ], for which the LC retention time is 13.7 min. On to `COc1ccc(CC(C)N)c(OC)c1OC` (stereo not given) [TMA], for which the LC retention time is 4.16 min. Then `Nc1c2c(nc3ccccc13)CCCC2` [Tacrine], with 4.77 min; and `NN1CC(=O)N2C(Cc3c([nH]c4ccccc34)C2c2ccc3c(c2)OCO3)C1=O` (stereo not given) [Tadalafil-Amino], with 7.84 min; and `O=C1NCC(=O)N2C1Cc1c([nH]c3ccccc13)C2c1ccc2c(c1)OCO2` (stereo not given) [Tadalafil-Nor], with 7.99 min. On to `CCCCN1CC(=O)N2C(Cc3c([nH]c4ccccc34)C2c2ccc3c(c2)OCO3)C1=O` (stereo not given) [Tadalafil-n-Butyl], for which the LC retention time was 10.2 min. Then `CN1CC(=O)N2C(Cc3c([nH]c4ccccc34)C2c2ccc3c(c2)OCO3)C1=O` (stereo not given) [Tadalafil], with 8.26 min. The figure for `CC(C)(C)NCC(O)COc1ccc(NC(=O)NC2CCCCC2)cc1` (stereo not given) [Talinolol] is 6.58 min. Then `CCC(=C(c1ccccc1)c1ccc(OCCN(C)C)cc1)c1ccccc1` [Tamoxifen], with 11 min; and `CCC(c1cccc(O)c1)C(C)CNC` (stereo not given) [Tapentadol-N-Desmethyl], with 5.14 min; and `CCC(c1cccc(O)c1)C(C)CN(C)C` (stereo not given) [Tapentadol], with 5.01 min. As for `CC(C)(C)C(O)(CCc1ccc(Cl)cc1)Cn1cncn1` (stereo not given) [Tebuconazole], the LC retention time is 10.9 min. Then `CCc1ccc(C(=O)NN(C(=O)c2cc(C)cc(C)c2)C(C)(C)C)cc1` [Tebufenozide], with 10.4 min; and `CCc1nn(C)c(C(=O)NCc2ccc(C(C)(C)C)cc2)c1Cl` [Tebufenpyrad], with 12.2 min. Then `CCOP(=S)(Oc1cnc(C(C)(C)C)nc1)OC(C)C` (stereo not given) [Tebupirimphos], with 12.3 min; and `CC(C)N(Cc1ccccc1)C(=O)C(C)(C)C` [Tebutame], with 10.2 min; and `CNC(=O)N(C)c1nnc(C(C)(C)C)s1` [Tebuthiuron], with 7.25 min. The figure for `O=C(NC(=O)c1c(F)cccc1F)Nc1cc(Cl)c(F)c(Cl)c1F` [Teflubenzuron] is 12.5 min; for `Cc1c(F)c(F)c(COC(=O)C2C(C=C(Cl)C(F)(F)F)C2(C)C)c(F)c1F.Cc1c(F)c(F)c(COC(=O)C2C(C=C(Cl)C(F)(F)F)C2(C)C)c(F)c1F` (stereo not given) [Tefluthrin] it is 13.4 min. `CCC1OC(=O)C(C)C(=O)C(C)C(OC2OC(C)CC(N(C)C)C2O)C(C)(OC)CC(C)C(=O)C(C)C2N(CCCCn3cnc(-c4cccnc4)c3)C(=O)OC12C` (stereo not given) [Telithromycin]: the LC retention time was 7.25 min.

Take `CCCc1nc2c(C)cc(-c3nc4ccccc4n3C)cc2n1Cc1ccc(-c2ccccc2C(=O)O)cc1` [Telmisartan]: the LC retention time is 10.3 min. Then `CN1C(=O)C(O)N=C(c2ccccc2)c2cc(Cl)ccc21` (stereo not given) [Temazepam], with 7.94 min. The figure for `COP(=S)(OC)Oc1ccc(Sc2ccc(OP(=S)(OC)OC)cc2)cc1` [Temephos] is 12.4 min; for `CC(Cn1cnc2c(N)ncnc21)OCP(=O)(O)O` (stereo not given) [Tenofovir] it is 2.69 min; for `COc1cc2nc(N3CCN(C(=O)C4CCCO4)CC3)nc(N)c2cc1OC` (stereo not given) [Terazosin] it is 4.92 min. Then `Cc1[nH]c(=O)n(C(C)(C)C)c(=O)c1Cl` [Terbacil], with 7.33 min. Turning to `CN(CC=CC#CC(C)(C)C)Cc1cccc2ccccc12` [Terbinafine], the LC retention time is 11 min.
